Reference: ChEMBL document CHEMBL4715741, “Neuroprotective effect of synthetic chalcone derivatives as competitive dual inhibitors against μ-calpain and cathepsin B through the downregulation of tau phosphorylation and insoluble Aβ peptide formation” (Eur J Med Chem, 2016)
Active and inactive are the calls of the source. The calls are words filed in the database; no cut-off is given here. Square brackets hold non-standard residues; d marks the D form. Peptide text beside a SMILES is read from it. * marks the point of attachment. ξ: configuration not given here. ξF = NC(Cc1ccccc1)C(=O)O; Cbz = O=C(OCc1ccccc1)*; CH2F = FC*

Experiments:
Cathepsin B [1] = target: T1, Cathepsin B (Homo sapiens, UniProt P07858); test: Inhibition of cathepsin B (unknown origin) using RR-AMC as substrate preincubated for 30 mins followed by substrate addition and further incubated for 30 mins under shaking condition by fluorescence assay
Procathepsin L = Procathepsin L (Homo sapiens, UniProt P07711); test: Inhibition of cathepsin L (unknown origin) using Z-FR-AMC as substrate preincubated for 30 mins followed by substrate addition and further incubated for 30 mins under shaking condition by fluorescence assay
Sequence of Procathepsin L (P07711 whole entry): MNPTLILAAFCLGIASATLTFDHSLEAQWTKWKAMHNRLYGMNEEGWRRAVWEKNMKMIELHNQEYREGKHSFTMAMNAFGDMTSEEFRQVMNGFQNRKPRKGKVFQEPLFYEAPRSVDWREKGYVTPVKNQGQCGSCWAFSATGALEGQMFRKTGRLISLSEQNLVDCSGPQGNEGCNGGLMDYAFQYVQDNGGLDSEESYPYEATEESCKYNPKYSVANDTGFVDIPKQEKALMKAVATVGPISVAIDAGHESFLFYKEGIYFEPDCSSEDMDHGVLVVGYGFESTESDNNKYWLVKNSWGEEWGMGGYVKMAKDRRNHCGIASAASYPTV

[2] = target: T2, Calpain-1 catalytic subunit (Homo sapiens, UniProt P07384); test: Inhibition of human erythrocytes mu-calpain using Pep1 as substrate incubated for 30 mins under shaking condition in presence of CaCl2 by fluorescence assay; design: species or system Erythrocyte
T2 sequence (P07384 whole entry): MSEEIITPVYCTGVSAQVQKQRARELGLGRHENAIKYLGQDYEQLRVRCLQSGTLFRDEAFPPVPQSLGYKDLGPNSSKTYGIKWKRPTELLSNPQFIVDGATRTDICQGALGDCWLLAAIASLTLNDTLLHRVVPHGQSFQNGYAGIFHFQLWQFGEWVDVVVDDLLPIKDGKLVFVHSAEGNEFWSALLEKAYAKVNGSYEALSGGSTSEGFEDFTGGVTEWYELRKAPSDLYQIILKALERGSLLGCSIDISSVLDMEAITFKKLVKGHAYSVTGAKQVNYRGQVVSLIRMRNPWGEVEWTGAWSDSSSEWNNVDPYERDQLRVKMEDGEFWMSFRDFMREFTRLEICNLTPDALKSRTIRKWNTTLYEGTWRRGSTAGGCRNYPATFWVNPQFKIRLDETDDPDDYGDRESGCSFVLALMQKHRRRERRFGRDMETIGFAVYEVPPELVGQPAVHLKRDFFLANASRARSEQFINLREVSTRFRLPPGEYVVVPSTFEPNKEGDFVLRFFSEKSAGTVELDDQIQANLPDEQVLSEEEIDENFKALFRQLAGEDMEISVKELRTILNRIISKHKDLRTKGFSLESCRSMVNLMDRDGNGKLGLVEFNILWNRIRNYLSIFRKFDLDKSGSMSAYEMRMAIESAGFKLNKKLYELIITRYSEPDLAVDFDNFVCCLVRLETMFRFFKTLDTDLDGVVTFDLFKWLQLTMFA

Cathepsin B [3] = target: T1, Cathepsin B; test: Inhibition of cathepsin B in human SH-SY5Y cells using RR-AMC as substrate by fluorescence microplate reader assay; format: cell-based
SH-SY5Y [4] = test: Neuroprotective activity in human SH-SY5Y cells assessed as reduction in GOx-induced caspase 3 cleavage pretreated with GOx for 4 hrs followed by compound treatment by Western blot analysis; format: functional, cell-based
[5] = target: T3, Calpain-1 catalytic subunit (Homo sapiens) (UniProt P07384); test: Inhibition of mu-calpain in human SH-SY5Y cells assessed as reduction in GOx-induced […] pretreated with GOx for 4 hrs followed by compound treatment by Western blot analysis; format: cell-based
T3 sequence (whole entry): T2 sequence (P07384 whole entry)

[6] = target: T3, Calpain-1 catalytic subunit (Homo sapiens); test: Inhibition of mu-calpain (unknown origin) expressed in HEK293T cells assessed as reduction in p35 cleavage at 5 uM using p35 as substrate measured after 210 mins by fluorescence microplate reader assay; format: cell-based
[7] = target: T3, Calpain-1 catalytic subunit (Homo sapiens); test: Inhibition of mu-calpain in human SH-SY5Y cells assessed as reduction in GOx-induced MAPK phosphorylation pretreated with GOx for 4 hrs followed by compound treatment by Western blot analysis; format: cell-based
[8] = target: T2, Calpain-1 catalytic subunit; test: (§1) Competitive inhibition of human erythrocytes mu-calpain using varying level of Pep2 as substrate by Lineweaver-Burk plot analysis; design: species or system Erythrocyte
[9] = target: T3, Calpain-1 catalytic subunit (Homo sapiens); test: as §1; details: Erythrocyte
[10] = target: T3, Calpain-1 catalytic subunit (Homo sapiens); test: Inhibition of mu-calpain in human SH-SY5Y cells assessed as reduction in tau phosphorylation by Western blot analysis; format: cell-based
SH-SY5Y [11] = test: Neuroprotective activity in human SH-SY5Y cells assessed as reduction in GOx-induced PARP cleavage at 5 uM pretreated with GOx for 4 hrs followed by compound treatment by Western blot analysis; format: functional, cell-based
[12] = target: T3, Calpain-1 catalytic subunit (Homo sapiens); test: Inhibition of mu-calpain (unknown origin) expressed in SH-SY5Y cells assessed as reduction in p35 cleavage at 20 uM using p35 as substrate measured after 210 mins by fluorescence microplate reader assay; format: cell-based
SH-SY5Y [13] = test: Inhibition of mu-calpain/cathepsin B in human SH-SY5Y cells assessed as reduction in GOx-induced BACE1 upregulation at 20 uM pretreated with GOx for 4 hrs followed by compound treatment by Western blot analysis; format: cell-based
Cathepsin B [14] = target: T1, Cathepsin B; test: Competitive inhibition of cathepsin B (unknown origin) using varying level of RR-AMC as substrate by Lineweaver-Burk plot analysis
SH-SY5Y [15] = test: Reduction in GOx-induced amyloid beta(1 to 42) level in human SH-SY5Y cells pretreated with GOx for 4 hrs followed by compound treatment by sandwich ELISA; format: functional, cell-based
[16] = target: T2, Calpain-1 catalytic subunit; test: Inhibition of human erythrocytes mu-calpain using Pep2 as substrate incubated for 30 mins under shaking condition in presence of CaCl2 by fluorescence assay; design: species or system Erythrocyte
SH-SY5Y [17] = test: Neuroprotective activity in human SH-SY5Y cells assessed as reduction in GOx-induced PARP cleavage at 20 uM pretreated with GOx for 4 hrs followed by compound treatment by Western blot analysis; format: functional, cell-based
Cathepsin B [18] = target: T1, Cathepsin B; test: Inhibition of human liver cathepsin B using RR-AMC as substrate preincubated for 30 mins followed by substrate addition and further incubated for 30 mins under shaking condition by fluorescence assay; format: tissue-based

Compound | IC50 (Cathepsin B [1]) [µM] | IC50 (Procathepsin L) [µM] | IC50 [2] [µM] | also measured
COc1ccc(O)cc1/C=C/C(=O)c1ccc(O)cc1 | – | – | – | IC50 [16]: 16.7 µM
O=C(/C=C/c1ccc(O)c2ccccc12)c1cccs1 | > 50 | 35.4 | > 50 | –
CCCNC(=O)[C@H]1O[C@@H]1C(=O)N[C@H](C(=O)N1CCC[C@H]1C(=O)O)[C@@H](C)CC | – | – | > 100 | Activity (SH-SY5Y [17]): Active
COc1cc(O)ccc1C(=O)/C=C/c1ccc(O)cc1 | – | – | – | IC50 [16]: 16.9 µM
CCOC(=O)[C@H]1O[C@@H]1C(=O)N[C@@H](CC(C)C)C(=O)NCCC(C)C [ALOXISTATIN] | 14.4 | 2.41 | 62.3 | Activity (SH-SY5Y [17]): Active
COc1cc(/C=C/C(=O)c2ccco2)ccc1O | – | – | – | IC50 (Cathepsin B [18]): 20.6 µM; IC50 [16]: 15.4 µM
O=C(/C=C/c1ccc(O)c2ccccc12)c1ccc(O)cc1 | 14.8 | 21.6 | 69.6 | –
CC(C)[C@H](NC(=O)OCc1ccccc1)C(=O)NC(C=O)Cc1ccccc1 (stereo partly drawn) (Cbz-Val-[ξF]-aldehyde) | – | – | – | Activity (SH-SY5Y [17]): Active

Further lines, with some results ahead:

IC50 (Cathepsin B [1]) [µM] | IC50 (Procathepsin L) [µM] | IC50 [2] [µM] | Compound | also measured
> 50 | 33 | 40.9 | O=C(/C=C/c1ccc(O)c2ccccc12)c1ccco1 | –
14.5 | 25.8 | 10.2 | COc1ccc(/C=C/C(=O)c2ccc(O)cc2)c2ccccc12 | –
33.3 | 48.4 | 19.1 | COc1ccccc1/C=C/C=C/C(=O)c1cccnc1 | –
37.8 | > 50 | 46.6 | COc1ccc(/C=C/C(=O)/C=C/c2ccc(O)cc2OC)cc1 | –
– | – | 0.397 | O=C(N[C@@H](Cc1ccccc1)C(=O)N[C@@H](Cc1ccccc1)C(=O)CF)OCc1ccccc1 (Cbz-Phe-Phe-CH2F) | –
11.1 | 16 | 16.8 | COc1cc(/C=C/C=C/C(=O)c2ccc(O)cc2)ccc1O | IC50 (Cathepsin B [3]): 3.81 µM; Activity (SH-SY5Y [4]): Active; inhibition [5]: Active; inhibition [6]: Active; inhibition [7]: Active; Ki [8]: 5.73 µM; inhibition [9]: Dose-dependent effect; inhibition [10]: Active; Activity (SH-SY5Y [11]): Active; inhibition [12]: Active; inhibition (SH-SY5Y [13]): Active; Ki (Cathepsin B [14]): 4.74 µM; inhibition (Cathepsin B [14]): Dose-dependent effect; Activity (SH-SY5Y [15]): Active
13.9 | 27 | 13 | CCOc1cc(O)ccc1C(=O)/C=C/C=C/c1ccccc1OC | –
15.6 | 15.6 | 23.8 | COc1cc(O)ccc1C(=O)/C=C/c1ccc(O)c2ccccc12 | –
33.1 | 26.1 | 13.7 | COc1ccccc1/C=C/C=C/C(=O)c1ccc(O)cc1 | –
6.34 | 14.9 | 18.8 | O=C(/C=C/c1ccc(O)c2ccccc12)c1ccc(O)cc1O | IC50 (Cathepsin B [3]): 13 µM; Activity (SH-SY5Y [4]): Active; inhibition [5]: Active; inhibition [6]: Active; inhibition [7]: Active; Ki [8]: 19.3 µM; inhibition [9]: Dose-dependent effect; inhibition [10]: Active; Activity (SH-SY5Y [11]): Active; inhibition [12]: Active; inhibition (SH-SY5Y [13]): Active; Ki (Cathepsin B [14]): 10.6 µM; inhibition (Cathepsin B [14]): Dose-dependent effect; Activity (SH-SY5Y [15]): Active
> 100 | 0.072 | 0.297 | CCCC[C@@H](C=O)NC(=O)[C@H](CC(C)C)NC(=O)OCc1ccccc1 [CALPEPTIN] | –
